The NIST ThermoML archive (doi:10.1016/j.jct.2008.09.016)

Experiment: mn = molality of the nth substance listed, in mol/kg
Conditions: 101 kPa, Liquid, Vibrating tube method

O=C([O-])Cc1ccccc1Nc1c(Cl)cccc1Cl.[Na+] [sodium diclofenac] + O
mass density [kg/m3]
Conditions | m1 = 0.0075 | m1 = 0.0076 | m1 = 0.01 | m1 = 0.0125 | m1 = 0.0152 | m1 = 0.0175 | m1 = 0.02 | m1 = 0.025
293.15 K | – | 998.331 | 998.385 | 998.445 | 998.525 | 998.605 | 998.695 | 998.911
298.15 K | – | 997.159 | 997.215 | 997.261 | 997.325 | 997.405 | 997.505 | 997.691
303.15 K | – | 995.745 | 995.795 | 995.851 | 995.905 | 995.973 | 996.075 | 996.239
308.15 K | – | 994.125 | 994.175 | 994.221 | 994.294 | 994.351 | 994.436 | 994.595
310.15 K | – | 993.388 | 993.424 | 993.475 | 993.541 | 993.591 | 993.661 | 993.851
313.15 K | 992.285 | – | 992.325 | 992.375 | 992.428 | 992.481 | 992.545 | 992.725
